Columns and labels:
Test in all cases: NCI single-dose screen (SRB)
Format in all cases: cell-based
HOP-62 = settings: Homo sapiens; Non-Small-Cell Lung Cancer HOP-62; 10^−5 M; read-out: Growth inhibition percentage
Protocol: (§1) The methodology of the NCI anticancer screening was described in detail elsewhere (http://www.dtp.nci.nih.gov). […] Tested compounds were added to the culture at a single concentration (10^−5 M) and the cultures were incubated for 48 h. End-point determinations were made with a protein binding dye, SRB. Results for each tested compound were reported as the percentage growth of the treated cells when compared to the untreated control cells. The percentage growth was evaluated spectrophotometrically versus controls not treated with test agents. All experiments were repeated three times (Table 1).
(§2) Briefly, the protocol was performed on 60 human tumor cell lines derived from different nine neoplastic diseases. […] If the results obtained met selection criteria, then the compound was tested again on all 60 cell lines in 5× 10-fold dilutions with the top dose being 10^−4 M or 150 μg/mL. Detailed methods are described in the Supplementary Materials related to this article.
(§3) on their site (http://www.dtp.nci.nih.gov). But briefly, the protocol performed at sixty human
(§4) National Cancer Institute, Bethesda, USA. If the results obtained meet selection criteria, then the
(§5) 10-4 molar or 150 μg/mL. […]

786-0 = settings: Homo sapiens; Renal Cancer 786-0; 10^−5 M; read-out: Growth inhibition percentage
Protocol: as §1, §2, §3, §4, §5

OVCAR-8 = settings: Homo sapiens; Ovarian Cancer OVCAR-8; 10^−5 M; read-out: Growth inhibition percentage
Protocol: as §1, §2, §3, §4, §5

MCF7 = settings: Homo sapiens; Breast Cancer MCF7; 10^−5 M; read-out: Growth inhibition percentage
Protocol: as §1, §2, §3, §4, §5

TK-10 = settings: Homo sapiens; Renal Cancer TK-10; 10^−5 M; read-out: Growth inhibition percentage
Protocol: as §1, §2, §3, §4, §5

A498 = settings: Homo sapiens; Renal Cancer A498; 10^−5 M; read-out: Growth inhibition percentage
Protocol: as §1, §2, §3, §4, §5

SF-295 = settings: Homo sapiens; CNS Cancer SF-295; 10^−5 M; read-out: Growth inhibition percentage
Protocol: as §1, §2, §3, §4, §5

SNB-75 = settings: Homo sapiens; CNS Cancer SNB-75; 10^−5 M; read-out: Growth inhibition percentage
Protocol: as §1, §2, §3, §4, §5

T-47D = settings: Homo sapiens, T47D; Breast Cancer T-47D; 10^−5 M; read-out: Growth inhibition percentage
Protocol: as §1, §2, §3, §4, §5

ACHN = settings: Homo sapiens; Renal Cancer ACHN; 10^−5 M; read-out: Growth inhibition percentage
Protocol: as §1, §2, §3, §4, §5

U251 = settings: Homo sapiens, U-251; CNS Cancer U251; 10^−5 M; read-out: Growth inhibition percentage
Protocol: as §1, §2, §3, §4, §5

SNB-19 = settings: Homo sapiens; CNS Cancer SNB-19; 10^−5 M; read-out: Growth inhibition percentage
Protocol: as §1, §2, §3, §4, §5

SN12C = settings: Homo sapiens; Renal Cancer SN12C; 10^−5 M; read-out: Growth inhibition percentage
Protocol: as §1, §2, §3, §4, §5

OVCAR-3 = settings: Homo sapiens; Ovarian Cancer OVCAR-3; 10^−5 M; read-out: Growth inhibition percentage
Protocol: as §1, §2, §3, §4, §5

NCI/ADR-RES = settings: Homo sapiens; Ovarian Cancer NCI/ADR-RES; 10^−5 M; read-out: Growth inhibition percentage
Protocol: as §1, §2, §3, §4, §5

NCI-H23 = settings: Homo sapiens; Non-Small-Cell Lung Cancer NCI-H23; 10^−5 M; read-out: Growth inhibition percentage
Protocol: as §1, §2, §3, §4, §5

COLO 205 = settings: Homo sapiens; Colon Cancer COLO 205; 10^−5 M; read-out: Growth inhibition percentage
Protocol: as §1, §2, §3, §4, §5

SK-MEL-28 = settings: Homo sapiens; Melanoma SK-MEL-28; 10^−5 M; read-out: Growth inhibition percentage
Protocol: as §1, §2, §3, §4, §5

K-562 = settings: Homo sapiens, K562; Leukemia K-562; 10^−5 M; read-out: Growth inhibition percentage
Protocol: as §1, §2, §3, §4, §5

LOX IMVI = settings: Homo sapiens; Melanoma LOX IMVI; 10^−5 M; read-out: Growth inhibition percentage
Protocol: as §1, §2, §3, §4, §5

NCI-H322M = settings: Homo sapiens; Non-Small-Cell Lung Cancer NCI-H322M; 10^−5 M; read-out: Growth inhibition percentage
Protocol: as §1, §2, §3, §4, §5

SK-OV-3 = settings: Homo sapiens; Ovarian Cancer SK-OV-3; 10^−5 M; read-out: Growth inhibition percentage
Protocol: as §1, §2, §3, §4, §5

NCI-H226 = settings: Homo sapiens; Non-Small-Cell Lung Cancer NCI-H226; 10^−5 M; read-out: Growth inhibition percentage
Protocol: as §1, §2, §3, §4, §5

BT-549 = settings: Homo sapiens; Breast Cancer BT-549; 10^−5 M; read-out: Growth inhibition percentage
Protocol: as §1, §2, §3, §4, §5

SW-620 = settings: Homo sapiens; Colon Cancer SW-620; 10^−5 M; read-out: Growth inhibition percentage
Protocol: as §1, §2, §3, §4, §5

M14 = settings: Homo sapiens; Melanoma M14; 10^−5 M; read-out: Growth inhibition percentage
Protocol: as §1, §2, §3, §4, §5

CCRF-CEM = settings: Homo sapiens; Leukemia CCRF-CEM; 10^−5 M; read-out: Growth inhibition percentage
Protocol: as §1, §2, §3, §4, §5

DU-145 = settings: Homo sapiens; Prostate Cancer DU-145; 10^−5 M; read-out: Growth inhibition percentage
Protocol: as §1, §2, §3, §4, §5

SR = settings: Homo sapiens; Leukemia SR; 10^−5 M; read-out: Growth inhibition percentage
Protocol: as §1, §2, §3, §4, §5

IGROV1 = settings: Homo sapiens, IGROV-1; Ovarian Cancer IGROV1; 10^−5 M; read-out: Growth inhibition percentage
Protocol: as §1, §2, §3, §4, §5

| Compound | inhibition at 10 µM (HOP-62) [%] | inhibition at 10 µM (786-0) [%] | inhibition at 10 µM (OVCAR-8) [%] | inhibition at 10 µM (MCF7) [%] | inhibition at 10 µM (TK-10) [%] | inhibition at 10 µM (A498) [%] | inhibition at 10 µM (SF-295) [%] | inhibition at 10 µM (SNB-75) [%] | inhibition at 10 µM (T-47D) [%] | inhibition at 10 µM (ACHN) [%] | inhibition at 10 µM (U251) [%] | inhibition at 10 µM (SNB-19) [%] | inhibition at 10 µM (SN12C) [%] | inhibition at 10 µM (OVCAR-3) [%] | inhibition at 10 µM (NCI/ADR-RES) [%] | inhibition at 10 µM (NCI-H23) [%] | inhibition at 10 µM (COLO 205) [%] | inhibition at 10 µM (SK-MEL-28) [%] | inhibition at 10 µM (K-562) [%] | inhibition at 10 µM (LOX IMVI) [%] | other results |
| --- | --- | --- | --- | --- | --- | --- | --- | --- | --- | --- | --- | --- | --- | --- | --- | --- | --- | --- | --- | --- | --- |
| COC(=O)C=C1SC(=NNC(=O)c2cc3ccc2CCc2ccc(cc2)CC3)N(c2ccccc2)C1=O [Compound 3a] | 97 | 100 | 59.3 | 76.8 | 84.8 | 50.8 | 41 | 54.3 | 138 | 30.7 | 84.2 | 60.1 | 77.5 | 106 | 68.6 | 59.6 | 52.3 | 17.5 | 73 | 128 | inhibition at 10 µM (NCI-H322M): 31.5%; inhibition at 10 µM (SK-OV-3): 0%; inhibition at 10 µM (NCI-H226): 26.2%; inhibition at 10 µM (BT-549): 64.5%; inhibition at 10 µM (SW-620): 92.6%; inhibition at 10 µM (M14): 46.9%; inhibition at 10 µM (CCRF-CEM): 87%; inhibition at 10 µM (DU-145): 49.1%; inhibition at 10 µM (SR): 116%; inhibition at 10 µM (IGROV1): 94% |
| COC(=O)C=C1SC(=NNC(=O)c2cc3ccc2CCc2ccc(cc2)CC3)N(Cc2ccccc2)C1=O [Compound 3b] | 22.8 | 50.5 | 28 | 67.3 | 4.53 | 53.9 | 10.6 | 48.8 | 106 | 34.2 | 45 | 43.1 | 38.8 | 79.7 | 29.6 | 22.6 | 27.3 | 0 | 81.1 | 93.8 | inhibition at 10 µM (NCI-H322M): 6.7%; inhibition at 10 µM (SK-OV-3): 0%; inhibition at 10 µM (NCI-H226): 35.2%; inhibition at 10 µM (BT-549): 89.7%; inhibition at 10 µM (SW-620): 81.8%; inhibition at 10 µM (M14): 36.6%; inhibition at 10 µM (CCRF-CEM): 96.2%; inhibition at 10 µM (DU-145): 16.8%; inhibition at 10 µM (SR): 115%; inhibition at 10 µM (IGROV1): 57.7% |
| COC(=O)C=C1SC(=Nc2cccnc2)N(NC(=O)c2cc3ccc2CCc2ccc(cc2)CC3)C1=O [Compound 3c, Methyl (E)-2-((E)-3-[2.2]paracyclophanyl)amido-4-oxo-2-(pyridin-3-ylimino)-thiazolidin-5-ylidene)acetate] | 4 | 8.52 | 1.51 | 26.8 | 0 | 3.59 | 5.63 | 0.25 | 31.1 | 11 | 14.7 | 16.6 | 8.87 | 4.51 | 4.7 | 9.18 | 0 | 0.86 | 20.7 | 9.78 | inhibition at 10 µM (NCI-H322M): 1.72%; inhibition at 10 µM (SK-OV-3): 0%; inhibition at 10 µM (NCI-H226): 7.48%; inhibition at 10 µM (BT-549): 18.4%; inhibition at 10 µM (SW-620): 10.8%; inhibition at 10 µM (M14): 7.99%; inhibition at 10 µM (CCRF-CEM): 31.3%; inhibition at 10 µM (DU-145): 0%; inhibition at 10 µM (SR): 74.2%; inhibition at 10 µM (IGROV1): 15.4% |
| C=CCN1C(=O)C(=CC(=O)OC)SC1=NNC(=O)c1cc2ccc1CCc1ccc(cc1)CC2 [Compound 3d] | 0 | 8.77 | 11.8 | 48.5 | 0 | 12.1 | 6.42 | 21.9 | 25 | 12.2 | 18.2 | 15.3 | 13.1 | 13.6 | 10.5 | 11.8 | 0 | 0 | 48.1 | 21.2 | inhibition at 10 µM (NCI-H322M): 2.94%; inhibition at 10 µM (SK-OV-3): 0%; inhibition at 10 µM (NCI-H226): 12.4%; inhibition at 10 µM (BT-549): 38.3%; inhibition at 10 µM (SW-620): 55.5%; inhibition at 10 µM (M14): 21.1%; inhibition at 10 µM (CCRF-CEM): 77.1%; inhibition at 10 µM (DU-145): 0%; inhibition at 10 µM (SR): 98.2%; inhibition at 10 µM (IGROV1): 10.8% |
| CCN1C(=O)C(=CC(=O)OC)SC1=NNC(=O)c1cc2ccc1CCc1ccc(cc1)CC2 [Compound 3e] | 0 | 9.45 | 7.42 | 56.3 | 6.5 | 6.63 | 3.13 | 21.2 | 5.77 | 10.4 | 15.6 | 14.4 | 4.97 | 7.09 | 13.5 | 0.4 | 0 | 0 | 45.8 | 26.5 | inhibition at 10 µM (NCI-H322M): 7.75%; inhibition at 10 µM (SK-OV-3): 0%; inhibition at 10 µM (NCI-H226): 7.31%; inhibition at 10 µM (BT-549): 7.73%; inhibition at 10 µM (SW-620): 91.2%; inhibition at 10 µM (M14): 12.8%; inhibition at 10 µM (CCRF-CEM): 66.1%; inhibition at 10 µM (DU-145): 0%; inhibition at 10 µM (SR): 113%; inhibition at 10 µM (IGROV1): 11.6% |
